In patent US12527760B2, “Synthesis of pro-resolving analogs and compositions therefor” (Nocendra Inc., priority 2019, dated 2026):

How the values were obtained:
[1] = test system: subjects with gingivitis; test: randomized, placebo-controlled, double-blind clinical study of Compound (Vb) oral rinse in gingivitis; assay type: in vivo, humans
Method: A clinical study comprised of 3 groups in a randomized, placebo-controlled, double-blind design with an additional group that received no treatment was performed to evaluate the use of Compound (Vb) on the treatment of gingivitis. Subjects were healthy adults, aged 18 through 65 years, with gingivitis as defined by […] (MGI)≥2.0. The treatment group (Compound (Vb) oral rinse) and the placebo rinse group consisted of 50 subjects each. The no-rinse control group consisted of 27 subjects. These group sizes were planned to allow for a 20% dropout rate.
(§1) The pH of this solution was 7 or less.
The Compound (Vb) oral rinse group received the active agent at a concentration of 1.0 μM in the oral rinse applied once daily (after morning teeth brushing) for 28 days. Thirty-two subjects reported a total of 56 treatment emergent adverse effects (TEAEs), with the greatest percentage of subjects reporting at least 1 TEAE in the Compound (Vb) group (38.0%) followed by the placebo group (20.0%) and the no-rinse control group (11.1%). Overall, 10 subjects reported at least 1 TEAE considered related to study drug, and 5 subjects reported at least one TEAE related to study procedures.
The primary outcome of this study was safety, and therefore, all efficacy analyses were considered secondary outcomes. The key secondary efficacy outcomes in this study were Modified Gingival Index (MGI) and BOP.

[2] = stability of the methyl ester in the oral rinse formulation over the course of the study; assay type: physicochemical; conditions: neutral pH (7 or less)
Source text: as §1
Without wishing to be bound by theory, it is believed that […] the pH of the oral rinse formulation increases the stability of the methyl ester forms of these benzo-lipoxin analogs and mimetics, therefore allowing for more efficient delivery of the active compounds (e.g., Compound (Vb), etc.) in these formulations.

[3] = test system: eicosanoid oxido-reductase; conditions: in comparison with native lipoxin A4; cited from earlier work
[4] = test system: polymorphonuclear neutrophil infiltration; conditions: murine peritonitis model, compared with the vehicle control; cited from earlier work
[5] = 1.0 μM oral rinse once daily for 28 days
[6] = oral TEAE possibly related to study drug

For `CCCCC[C@@H](O)/C=C/c1ccccc1/C=C/[C@@H](O)[C@@H](O)CCCC(=O)OC` [Compound (Vb), methyl (5S,6R,E)-5,6-dihydroxy-8-(2-((R,E)-3-hydroxyoct-1-en-1-yl)phenyl)oct-7-enoate], the “overall safety and tolerability” value [1, 5] was “generally safe and well tolerated”, the “percentage of subjects reporting at least 1 TEAE” value [1, 5] was 38.0% and the “subjects reporting oral TEAEs considered possibly related to study drug” value [1, 5] was “Four”. The “subjects with study drug-related TEAEs” value [1, 5] was 6 subjects, the “change in mean MGI” value ([1]; Day 14 and 28, relative to placebo) was “clinically important decrease” and the BOP ([1]; Day 28, versus placebo) was “did not result in meaningful differences”. For the same compound, the “extent of clinical gingivitis” value ([1]; compared with the placebo group) was “reduced the extent of clinical gingivitis”, the “TEAEs leading to study drug discontinuation” value ([1]; human, in vivo) was “No TEAEs led to study drug discontinuation” and the “severity of oral TEAEs” value ([1]; human, in vivo, po) was “mild in severity”. The “subjects reporting an oral disorder” value [1, 6] was 1 subject, the “subjects reporting dry mouth” value [1, 6] was 3 subjects and the pocket depth reduction ([1]; sites with pockets >6 mm, ± SD) was −1.23±0.406 mm. For the same compound, the “stability of the methyl ester in the formulation” value [2] was “increase in the free acid form”, the “conversion to inactive forms” value [3] was “not readily converted to inactive forms” and the “inhibition of polymorphonuclear neutrophil infiltration” value [4] was “approximately 32%”.
